{"source": "the NIST ThermoML archive (doi:10.1016/j.tca.2004.08.013)", "test": "xn = mol fraction of the nth substance listed", "conditions": "101.3 kPa, Liquid", "note": "Numbers after ± are expanded uncertainties."}
{"smiles": "CCCN(CCC)CCC", "note": "[tripropylamine] + ClC(Cl)(Cl)Cl", "values": [{"measurement": "mass density", "setting": "303.15 K, x1 = 0.0103", "value": "1558.08 ± 1.5", "unit": "kg/m3"}, {"measurement": "viscosity", "setting": "303.15 K, x1 = 0.0103", "value": "0.848 ± 0.012", "unit": "mPa·s"}, {"measurement": "mass density", "setting": "303.15 K, x1 = 0.0203", "value": "1542.01 ± 1.5", "unit": "kg/m3"}, {"measurement": "viscosity", "setting": "303.15 K, x1 = 0.0203", "value": "0.84 ± 0.012", "unit": "mPa·s"}, {"measurement": "mass density", "setting": "303.15 K, x1 = 0.0304", "value": "1526.35 ± 1.4", "unit": "kg/m3"}, {"measurement": "viscosity", "setting": "303.15 K, x1 = 0.0304", "value": "0.829 ± 0.011", "unit": "mPa·s"}, {"measurement": "mass density", "setting": "303.15 K, x1 = 0.0398", "value": "1511.85 ± 1.4", "unit": "kg/m3"}, {"measurement": "viscosity", "setting": "303.15 K, x1 = 0.0398", "value": "0.819 ± 0.011", "unit": "mPa·s"}, {"measurement": "mass density", "setting": "303.15 K, x1 = 0.0497", "value": "1496.93 ± 1.4", "unit": "kg/m3"}, {"measurement": "viscosity", "setting": "303.15 K, x1 = 0.0497", "value": "0.811 ± 0.011", "unit": "mPa·s"}, {"measurement": "mass density", "setting": "303.15 K, x1 = 0.0606", "value": "1480.86 ± 1.4", "unit": "kg/m3"}, {"measurement": "viscosity", "setting": "303.15 K, x1 = 0.0606", "value": "0.802 ± 0.011", "unit": "mPa·s"}, {"measurement": "mass density", "setting": "303.15 K, x1 = 0.0695", "value": "1468.02 ± 1.3", "unit": "kg/m3"}, {"measurement": "viscosity", "setting": "303.15 K, x1 = 0.0695", "value": "0.795 ± 0.011", "unit": "mPa·s"}, {"measurement": "mass density", "setting": "303.15 K, x1 = 0.0786", "value": "1455.03 ± 1.3", "unit": "kg/m3"}, {"measurement": "viscosity", "setting": "303.15 K, x1 = 0.0786", "value": "0.788 ± 0.011", "unit": "mPa·s"}, {"measurement": "mass density", "setting": "303.15 K, x1 = 0.0893", "value": "1440.17 ± 1.3", "unit": "kg/m3"}, {"measurement": "viscosity", "setting": "303.15 K, x1 = 0.0893", "value": "0.78 ± 0.011", "unit": "mPa·s"}, {"measurement": "mass density", "setting": "313.15 K, x1 = 0.0103", "value": "1538.54 ± 1.5", "unit": "kg/m3"}, {"measurement": "viscosity", "setting": "313.15 K, x1 = 0.0103", "value": "0.754 ± 0.011", "unit": "mPa·s"}, {"measurement": "mass density", "setting": "313.15 K, x1 = 0.0203", "value": "1522.71 ± 1.4", "unit": "kg/m3"}, {"measurement": "viscosity", "setting": "313.15 K, x1 = 0.0203", "value": "0.747 ± 0.01", "unit": "mPa·s"}, {"measurement": "mass density", "setting": "313.15 K, x1 = 0.0304", "value": "1507.24 ± 1.4", "unit": "kg/m3"}, {"measurement": "viscosity", "setting": "313.15 K, x1 = 0.0304", "value": "0.739 ± 0.01", "unit": "mPa·s"}, {"measurement": "mass density", "setting": "313.15 K, x1 = 0.0398", "value": "1492.94 ± 1.4", "unit": "kg/m3"}, {"measurement": "viscosity", "setting": "313.15 K, x1 = 0.0398", "value": "0.733 ± 0.01", "unit": "mPa·s"}, {"measurement": "mass density", "setting": "313.15 K, x1 = 0.0497", "value": "1478.28 ± 1.4", "unit": "kg/m3"}, {"measurement": "viscosity", "setting": "313.15 K, x1 = 0.0497", "value": "0.726 ± 0.01", "unit": "mPa·s"}, {"measurement": "mass density", "setting": "313.15 K, x1 = 0.0606", "value": "1462.46 ± 1.3", "unit": "kg/m3"}, {"measurement": "viscosity", "setting": "313.15 K, x1 = 0.0606", "value": "0.718 ± 0.01", "unit": "mPa·s"}, {"measurement": "mass density", "setting": "313.15 K, x1 = 0.0695", "value": "1449.76 ± 1.3", "unit": "kg/m3"}, {"measurement": "viscosity", "setting": "313.15 K, x1 = 0.0695", "value": "0.712 ± 0.01", "unit": "mPa·s"}, {"measurement": "mass density", "setting": "313.15 K, x1 = 0.0786", "value": "1437.01 ± 1.3", "unit": "kg/m3"}, {"measurement": "viscosity", "setting": "313.15 K, x1 = 0.0786", "value": "0.706 ± 0.01", "unit": "mPa·s"}, {"measurement": "mass density", "setting": "313.15 K, x1 = 0.0893", "value": "1422.3 ± 1.2", "unit": "kg/m3"}, {"measurement": "viscosity", "setting": "313.15 K, x1 = 0.0893", "value": "0.699 ± 0.01", "unit": "mPa·s"}]}
{"smiles": "CCCN(CCC)CCC", "note": "[tripropylamine] + ClC(Cl)Cl", "values": [{"measurement": "mass density", "setting": "303.15 K, x1 = 0.0106", "value": "1453.58 ± 1.3", "unit": "kg/m3"}, {"measurement": "viscosity", "setting": "303.15 K, x1 = 0.0106", "value": "0.531 ± 0.008", "unit": "mPa·s"}, {"measurement": "mass density", "setting": "303.15 K, x1 = 0.0206", "value": "1437.45 ± 1.3", "unit": "kg/m3"}, {"measurement": "viscosity", "setting": "303.15 K, x1 = 0.0206", "value": "0.541 ± 0.008", "unit": "mPa·s"}, {"measurement": "mass density", "setting": "303.15 K, x1 = 0.032", "value": "1419.7 ± 1.2", "unit": "kg/m3"}, {"measurement": "viscosity", "setting": "303.15 K, x1 = 0.032", "value": "0.546 ± 0.008", "unit": "mPa·s"}, {"measurement": "mass density", "setting": "303.15 K, x1 = 0.0396", "value": "1407.99 ± 1.2", "unit": "kg/m3"}, {"measurement": "viscosity", "setting": "303.15 K, x1 = 0.0396", "value": "0.554 ± 0.008", "unit": "mPa·s"}, {"measurement": "mass density", "setting": "303.15 K, x1 = 0.0509", "value": "1391.16 ± 1.2", "unit": "kg/m3"}, {"measurement": "viscosity", "setting": "303.15 K, x1 = 0.0509", "value": "0.563 ± 0.008", "unit": "mPa·s"}, {"measurement": "mass density", "setting": "303.15 K, x1 = 0.0596", "value": "1378.63 ± 1.1", "unit": "kg/m3"}, {"measurement": "viscosity", "setting": "303.15 K, x1 = 0.0596", "value": "0.568 ± 0.008", "unit": "mPa·s"}, {"measurement": "mass density", "setting": "303.15 K, x1 = 0.0693", "value": "1364.78 ± 1.1", "unit": "kg/m3"}, {"measurement": "viscosity", "setting": "303.15 K, x1 = 0.0693", "value": "0.579 ± 0.008", "unit": "mPa·s"}, {"measurement": "mass density", "setting": "303.15 K, x1 = 0.0787", "value": "1351.78 ± 1.1", "unit": "kg/m3"}, {"measurement": "viscosity", "setting": "303.15 K, x1 = 0.0787", "value": "0.59 ± 0.009", "unit": "mPa·s"}, {"measurement": "mass density", "setting": "303.15 K, x1 = 0.0883", "value": "1338.63 ± 1.1", "unit": "kg/m3"}, {"measurement": "viscosity", "setting": "303.15 K, x1 = 0.0883", "value": "0.598 ± 0.009", "unit": "mPa·s"}, {"measurement": "mass density", "setting": "313.15 K, x1 = 0.0106", "value": "1431.77 ± 1.3", "unit": "kg/m3"}, {"measurement": "viscosity", "setting": "313.15 K, x1 = 0.0106", "value": "0.476 ± 0.007", "unit": "mPa·s"}, {"measurement": "mass density", "setting": "313.15 K, x1 = 0.0206", "value": "1416.02 ± 1.2", "unit": "kg/m3"}, {"measurement": "viscosity", "setting": "313.15 K, x1 = 0.0206", "value": "0.48 ± 0.007", "unit": "mPa·s"}, {"measurement": "mass density", "setting": "313.15 K, x1 = 0.032", "value": "1398.73 ± 1.2", "unit": "kg/m3"}, {"measurement": "viscosity", "setting": "313.15 K, x1 = 0.032", "value": "0.485 ± 0.007", "unit": "mPa·s"}, {"measurement": "mass density", "setting": "313.15 K, x1 = 0.0396", "value": "1387.54 ± 1.2", "unit": "kg/m3"}, {"measurement": "viscosity", "setting": "313.15 K, x1 = 0.0396", "value": "0.489 ± 0.007", "unit": "mPa·s"}, {"measurement": "mass density", "setting": "313.15 K, x1 = 0.0509", "value": "1370.93 ± 1.1", "unit": "kg/m3"}, {"measurement": "viscosity", "setting": "313.15 K, x1 = 0.0509", "value": "0.493 ± 0.007", "unit": "mPa·s"}, {"measurement": "mass density", "setting": "313.15 K, x1 = 0.0596", "value": "1358.79 ± 1.1", "unit": "kg/m3"}, {"measurement": "viscosity", "setting": "313.15 K, x1 = 0.0596", "value": "0.501 ± 0.008", "unit": "mPa·s"}, {"measurement": "mass density", "setting": "313.15 K, x1 = 0.0693", "value": "1345.21 ± 1.1", "unit": "kg/m3"}, {"measurement": "viscosity", "setting": "313.15 K, x1 = 0.0693", "value": "0.504 ± 0.008", "unit": "mPa·s"}, {"measurement": "mass density", "setting": "313.15 K, x1 = 0.0787", "value": "1332.44 ± 1.1", "unit": "kg/m3"}, {"measurement": "viscosity", "setting": "313.15 K, x1 = 0.0787", "value": "0.511 ± 0.008", "unit": "mPa·s"}, {"measurement": "mass density", "setting": "313.15 K, x1 = 0.0883", "value": "1319.39 ± 1", "unit": "kg/m3"}, {"measurement": "viscosity", "setting": "313.15 K, x1 = 0.0883", "value": "0.516 ± 0.008", "unit": "mPa·s"}]}
